Data on 23 compounds can be found in US20210253575A1, “PYRROLIDINE AMINE COMPOUNDS FOR THE TREATMENT OF AUTOIMMUNE DISEASE” (Hoffmann-La Roche Inc., priority 2018, published 2021).

The experiment addresses T1, human TLR8 (Homo sapiens, UniProt Q9NR97).
T1 sequence (Q9NR97 27-1041): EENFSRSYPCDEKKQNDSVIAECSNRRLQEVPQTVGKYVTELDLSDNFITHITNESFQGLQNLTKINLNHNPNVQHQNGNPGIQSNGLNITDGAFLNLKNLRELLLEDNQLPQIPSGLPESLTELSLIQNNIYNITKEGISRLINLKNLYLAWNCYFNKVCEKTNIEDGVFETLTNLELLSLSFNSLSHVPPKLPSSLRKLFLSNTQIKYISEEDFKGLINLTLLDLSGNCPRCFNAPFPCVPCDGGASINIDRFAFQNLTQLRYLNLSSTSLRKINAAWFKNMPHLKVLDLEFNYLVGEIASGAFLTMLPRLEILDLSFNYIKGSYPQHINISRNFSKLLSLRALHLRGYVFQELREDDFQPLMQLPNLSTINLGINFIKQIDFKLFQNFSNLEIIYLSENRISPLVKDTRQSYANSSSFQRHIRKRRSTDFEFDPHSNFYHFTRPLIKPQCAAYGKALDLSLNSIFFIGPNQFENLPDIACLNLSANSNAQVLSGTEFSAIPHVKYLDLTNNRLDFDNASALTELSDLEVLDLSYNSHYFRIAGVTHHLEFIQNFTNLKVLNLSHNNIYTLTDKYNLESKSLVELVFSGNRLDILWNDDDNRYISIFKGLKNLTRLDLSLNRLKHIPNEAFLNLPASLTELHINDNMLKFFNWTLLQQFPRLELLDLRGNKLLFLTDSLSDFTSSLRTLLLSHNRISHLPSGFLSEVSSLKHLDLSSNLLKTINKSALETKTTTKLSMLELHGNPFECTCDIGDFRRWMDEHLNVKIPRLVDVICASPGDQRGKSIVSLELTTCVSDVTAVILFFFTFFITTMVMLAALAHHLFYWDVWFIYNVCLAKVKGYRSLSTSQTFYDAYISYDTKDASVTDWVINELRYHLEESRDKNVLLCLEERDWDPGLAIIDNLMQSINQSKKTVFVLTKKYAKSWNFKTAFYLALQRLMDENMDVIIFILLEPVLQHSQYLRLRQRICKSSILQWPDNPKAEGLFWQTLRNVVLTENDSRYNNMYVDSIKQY
Description: HEK293-Blue-hTLR-8 cells assay (SEAP reporter, R848 stimulation). The format is cell-based. The following applies: HEK293-Blue-hTLR8 cells, R848 ligand, 20 hrs incubation. As for the experimental part: The following tests were carried out in order to determine the activity of the compounds of formula (I) in HEK293-Blue-hTLR-7/8/9 cells assay.
HEK293-Blue-hTLR-8 Cells Assay:
A stable HEK293-Blue-hTLR-8 cell line was purchased from InvivoGen (Cat. #: hkb-htlr8, San Diego, Calif., USA). These cells were originally designed for studying the stimulation of human TLR8 by monitoring the activation of NF-κB. A SEAP (secreted embryonic alkaline phosphatase) reporter gene was placed under the control of the IFN-β minimal promoter fused to five NF-κB and AP-1-binding sites. The SEAP was induced by activating NF-κB and AP-1 via stimulating HEK-Blue hTLR8 cells with TLR8 ligands. Therefore the reporter expression was declined by TLR8 antagonist under the stimulation of a ligand, such as R848, for incubation of 20 hrs. The cell culture supernatant SEAP reporter activity was determined using QUANTI-Blue™ kit (Cat. #: rep-qb1, Invivogen, San Diego, Ca, USA) at a wavelength of 640 nm, a detection medium that turns purple or blue in the presence of alkaline phosphatase.
HEK293-Blue-hTLR8 cells were incubated at a density of 250,000˜450,000 cells/mL in a volume of 170 μL in a 96-well plate in Dulbecco's Modified Eagle's medium (DMEM) containing 4.5 g/L glucose, 50 U/mL penicillin, […], […], 2 mM L-glutamine, 10% (v/v) heat-inactivated fetal bovine serum with addition of 20 μL test compound in a serial dilution in the presence of final DMSO at 1% and 10 μL of 60 uM R848 in above DMEM, perform incubation under 37° C. in a CO2 incubator for 20 hrs. Then 20 μL of the supernatant from each well was incubated with 180 μL Quanti-blue substrate solution at 37° C. for 2 hrs and the absorbance was read at 620-655 nm using a spectrophotometer. The signalling pathway that TLR8 activation leads to downstream NF-κB activation has been widely accepted, and therefore similar reporter assay was modified for evaluating TLR8 antagonist.
`N#Cc1ccc(N2C[C@H](CN3CCC4(CCNCC4)C3)[C@@H](C(F)(F)F)C2)c2cccnc12` [Example 56, 5-[(3S,4R)-3-(2,8-Diazaspiro[4.5]decan-2-ylmethyl)-4-(trifluoromethyl)pyrrolidin-1-yl]quinoline-8-carbonitrile]: half-maximal inhibition (IC50) required 0.062 µM. This counts as double-digit nanomolar.
As for `FC(F)(F)c1ccc(N2CC(CN3CCC4(CCNCC4)CC3)C3(CC3)C2)c2nccnc12` (centres unmarked) [Example 31, 3-[[5-[8-(Trifluoromethyl)quinoxalin-5-yl]-5-azaspiro[2.4]heptan-7-yl]methyl]-3,9-diazaspiro[5.5]undecane], the figure is 0.418 µM.
Consider `FC(F)(F)c1ccc(N2C[C@@H](CN3CCC4(CCNC4)C3)[C@H](C(F)(F)F)C2)c2nccnc12` (relative stereo) [Example 19, 5-[Trans-3-(2,7-diazaspiro[4.4]nonan-2-ylmethyl)-4-(trifluoromethyl)pyrrolidin-1-yl]-8-(trifluoromethyl)quinoxaline], for which the IC50 (usually the concentration at which inhibition is half-maximal) worked out at 0.253 µM.
As for `N#Cc1ccc(N2CC(CN3CC4(CCCNC4)C3)C3(CC3)C2)c2nccnc12` (centres unmarked) [Example 24, 8-[7-(2,8-Diazaspiro[3.5]nonan-2-ylmethyl)-5-azaspiro[2.4]heptan-5-yl]quinoxaline-5-carbonitrile], the midpoint of inhibition, the IC50, lay at 0.063 µM.
`N#Cc1ccc(N2C[C@H](CN3CCCC4(CCNCC4)C3)[C@@H](C(F)(F)F)C2)c2cccnc12` [Example 57, 5-[(3S,4R)-3-(2,9-Diazaspiro[5.5]undecan-2-ylmethyl)-4-(trifluoromethyl)pyrrolidin-1-yl]quinoline-8-carbonitrile] yielded a half-maximal inhibitory concentration (IC50) of 0.085 µM. This IC50 and that of the compound before are within 1.5-fold of each other.
To `C[C@H]1CN(c2ccc(C#N)c3ncccc23)C[C@@H]1CN1CCC2(CCNCC2)CC1` [Example 23, 5-[(3S,4R)-3-(3,9-diazaspiro[5.5]undecan-3-ylmethyl)-4-methyl-pyrrolidin-1-yl]quinoline-8-carbonitrile] belongs 0.266 µM; to `CC[C@@H]1CN(c2ccc(C#N)c3ncccc23)C[C@H]1CN1CCC2(CCNC2)C1` (relative stereo) [Example 29, 5-[Trans-3-(2,7-diazaspiro[4.4]nonan-2-ylmethyl)-4-ethyl-pyrrolidin-1-yl]quinoline-8-carbonitrile], 0.197 µM.
To `CC[C@@H]1CN(c2ccc(C#N)c3ncccc23)C[C@H]1CN1CCC2(CCNCC2)CC1` (relative stereo) [Example 15, 5-[Trans-3-(3,9-diazaspiro[5.5]undecan-3-ylmethyl)-4-ethyl-pyrrolidin-1-yl]quinoline-8-carbonitrile] belongs 0.19 µM.
To `N#Cc1ccc(N2CCC(CN3CCC4(CCNCC4)CC3)C2)c2nccnc12` (centres unmarked) [Example 37, 8-[3-(3,9-Diazaspiro[5.5]undecan-3-ylmethyl)pyrrolidin-1-yl]quinoxaline-5-carbonitrile] belongs 0.531 µM.
Regarding `N#Cc1ccc(N2C[C@H](CN3CC4(CC(N)C4)C3)[C@@H](C(F)(F)F)C2)c2cccnc12` [Example 53, 5-[(3S,4R)-3-[(6-Amino-2-azaspiro[3.3]heptan-2-yl)methyl]-4-(trifluoromethyl)pyrrolidin-1-yl]quinoline-8-carbonitrile], the IC50 is 0.146 µM.
`N#Cc1ccc(N2C[C@H](CN3CCNCC3)[C@@H](C(F)(F)F)C2)c2nccnc12` [Example 59, 8-[(3S,4R)-3-(Piperazin-1-ylmethyl)-4-(trifluoromethyl)pyrrolidin-1-yl]quinoxaline-5-carbonitrile]: half-maximal inhibition (IC50) was put at 0.014 µM.
`N#Cc1ccc(N2C[C@H](CN3CCC4(CCNCC4)C3)[C@@H](C(F)(F)F)C2)c2nccnc12` [Example 46, 8-[(3S,4R)-3-(2,8-diazaspiro[4.5]decan-2-ylmethyl)-4-(trifluoromethyl)pyrrolidin-1-yl]quinoxaline-5-carbonitrile]: the IC50 was determined as 0.067 µM.
As for `N#Cc1ccc(N2CC(CN3CCC4(CCCCN4)CC3)C3(CC3)C2)c2nccnc12` (centres unmarked) [Example 65, 8-[7-(1,9-Diazaspiro[5.5]undecan-9-ylmethyl)-5-azaspiro[2.4]heptan-5-yl]quinoxaline-5-carbonitrile], the figure is 0.092 µM; as for `CC(C)[C@@H]1CN(c2ccc(C#N)c3ncccc23)C[C@H]1CN1CCC2(CCNCC2)CC1` (relative stereo) [Example 36, 5-[Trans-3-(3,9-diazaspiro[5.5]undecan-3-ylmethyl)-4-isopropyl-pyrrolidin-1-yl]quinoline-8-carbonitrile], 5.17 µM.
As for `C[C@H]1CN(c2ccc(C#N)c3nccnc23)C[C@@H]1CN1CCC2(CCNCC2)CC1` [Example 17, 8-[(3S,4R)-3-(3,9-diazaspiro[5.5]undecan-3-ylmethyl)-4-methyl-pyrrolidin-1-yl]quinoxaline-5-carbonitrile], the figure is 0.065 µM.
As for `N#Cc1ccc(N2CC(CN3CCC4(CCNCC4)C3)C3(CC3)C2)c2nccnc12` (centres unmarked) [Example 32, 8-[7-(2,8-Diazaspiro[4.5]decan-2-ylmethyl)-5-azaspiro[2.4]heptan-5-yl]quinoxaline-5-carbonitrile], the figure is 0.111 µM.
`N#Cc1ccc(N2C[C@H](CN3CCC(N)CC3)[C@@H](C(F)(F)F)C2)c2nccnc12` [Example 26, 8-[(3S,4R)-3-[(4-Amino-1-piperidyl)methyl]-4-(trifluoromethyl)pyrrolidin-1-yl]quinoxaline-5-carbonitrile] yielded an IC50 of 0.021 µM. This IC50 lies about 5.3-fold lower than the previous one.
As for `N#Cc1ccc(N2C[C@@H](CN3CCC4(CCNC4)C3)[C@H](C(F)F)C2)c2cccnc12` (relative stereo) [Example 34, 5-[Trans-3-(2,7-diazaspiro[4.4]nonan-2-ylmethyl)-4-(difluoromethyl)pyrrolidin-1-yl]quinoline-8-carbonitrile], the figure is 0.373 µM; as for `N#Cc1ccc(N2C[C@H](CN3CCC4(CCCNC4)CC3)[C@@H](C(F)(F)F)C2)c2cccnc12` [Example 55, 5-[(3S,4R)-3-(2,9-Diazaspiro[5.5]undecan-9-ylmethyl)-4-(trifluoromethyl)pyrrolidin-1-yl]quinoline-8-carbonitrile], 0.042 µM.
Compound `N#Cc1ccc(N2C[C@H](CN3CCC4(CCNC4)C3)[C@@H](C(F)(F)F)C2)c2cccnc12` (stereo partly drawn) [Example 9, 5-[(3S,4R)-3-(2,7-diazaspiro[4.4]nonan-2-ylmethyl)-4-(trifluoromethyl)pyrrolidin-1-yl]quinoline-8-carbonitrile] had an IC50 of 0.047 µM. This IC50 and that of the compound before are within 1.5-fold of each other.
To `CC1(CN)CCCN(C[C@H]2CN(c3ccc(C#N)c4nccnc34)C[C@@H]2C(F)(F)F)C1` (stereo partly drawn) [Example 75, 8-[(3S,4R)-3-[[3-(aminomethyl)-3-methyl-1-piperidyl]methyl]-4-(trifluoromethyl)pyrrolidin-1-yl]quinoxaline-5-carbonitrile] belongs 0.031 µM.
`N#Cc1ccc(N2C[C@H](CN3CCC(N4CCCCC4)CC3)[C@@H](C(F)(F)F)C2)c2nccnc12` [Example 61, 8-[(3S,4R)-3-[[4-(1-Piperidyl)-1-piperidyl]methyl]-4-(trifluoromethyl)pyrrolidin-1-yl]quinoxaline-5-carbonitrile] registered a 50% inhibitory concentration (IC50) of 0.023 µM.
Take `N#Cc1ccc(N2C[C@H](CN3CC4CNCC4C3)[C@@H](C(F)(F)F)C2)c2nccnc12` (stereo partly drawn) [Example 76, 8-[(3S,4R)-3-(2,3,3a,4,6,6a-hexahydro-1H-pyrrolo[3,4-c]pyrrol-5-ylmethyl)-4-(trifluoromethyl)pyrrolidin-1-yl]quinoxaline-5-carbonitrile]: half-maximal inhibition (IC50) required 0.041 µM. Compared with the last compound, the IC50 is about 1.8-fold higher.
